Measurements from ChEMBL document CHEMBL1201862, “PubChem BioAssay data set” (2004).
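Assay format: 96-well plates, 48-hour exposure. GI50 marks 50% less growth.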 Activity calls are given as the source filed them. Cut-off read from the data, not from the text of the source: active = GI50 up to about 1.1 µM and inactive = higher.

Experiments:
Assay in all cases: NCI-60 cell line screen, 48 h
[1] = system: 786-0
[2] = system: COLO 205
[3] = system: HCC 2998
[4] = system: HOP-92
[5] = system: IGROV-1
[6] = system: MDA-N
[7] = system: MOLT-4
[8] = system: NCI-H460
[9] = system: RXF 393
[10] = system: SF-268
[11] = system: SF-295
[12] = system: SK-OV-3
[13] = system: SNB-75
[14] = system: TK-10
[15] = system: U-251
[16] = system: UACC-257
[17] = system: UACC-62
[18] = system: A498
[19] = system: Malme-3M
[20] = system: T47D

Measured: GI50

CC(=O)C1C(=O)C(=O)N(c2ccc(Br)cc2)C1=O (centres undefined)
inactive: [1] > 100 µM | [2] > 100 µM | [3] > 100 µM | [4] > 100 µM | [5] > 100 µM | [6] > 100 µM | [7] > 100 µM | [8] > 100 µM | [9] > 100 µM | [10] > 100 µM | [11] > 100 µM | [12] > 100 µM | [13] > 100 µM | [14] > 100 µM | [15] > 100 µM | [16] > 100 µM | [17] > 100 µM

CCC1CN2CCc3cc(OC)c(OC)cc3C2CC1CC1c2cc(OC)c(OC)cc2CCN1C(=O)C1CCCN1C(=O)OCc1ccccc1 (centres undefined)
inactive: [1] 19.4 µM | [18] 16.3 µM | [3] 16.3 µM | [4] 10.2 µM | [5] 15.9 µM | [19] 18.3 µM | [8] 15.5 µM | [9] 10.4 µM | [10] 17.1 µM | [11] 16.5 µM | [13] 14.4 µM | [14] 19.5 µM | [15] 15 µM | [16] 16.9 µM | [17] 16.1 µM

CCCCCCCCCCCC(=O)OCCOCCOCCOCCOCCOCc1ccc(OC)cc1
inactive: [1] > 100 µM | [18] > 100 µM | [2] > 100 µM | [3] > 100 µM | [4] > 100 µM | [5] 88.5 µM | [7] 73.6 µM | [19] > 100 µM | [8] > 100 µM | [9] > 100 µM | [10] > 100 µM | [11] > 100 µM | [12] > 100 µM | [13] > 100 µM | [14] > 100 µM | [15] > 100 µM | [16] > 100 µM | [17] > 100 µM

c1ccc(C2(c3ccccc3)SSC3(S2)C2CC4CC(C2)CC3C4)cc1 (centres undefined)
inactive: [1] > 100 µM | [18] > 100 µM | [3] > 100 µM | [4] > 100 µM | [5] > 100 µM | [7] > 56.6 µM | [19] > 100 µM | [8] > 100 µM | [9] > 100 µM | [10] > 100 µM | [11] > 100 µM | [12] > 100 µM | [13] > 100 µM | [14] > 100 µM | [15] > 100 µM | [16] > 100 µM | [17] > 100 µM

COC1(OC)CC2C(=O)N(Cc3ccccc3)C1C=C2S(=O)(=O)c1ccccc1 (centres undefined)
inactive: [1] 19.7 µM | [18] 20 µM | [2] 10.2 µM | [3] 19.5 µM | [4] 24.1 µM | [5] 32.9 µM | [7] 16.5 µM | [19] 20.4 µM | [8] 18.2 µM | [9] 12.7 µM | [10] 37 µM | [11] 28.5 µM | [12] 47.5 µM | [13] 28.8 µM | [14] 25.1 µM | [15] 15.5 µM | [16] 16.9 µM | [17] 16.7 µM

N#C/C(=C\c1ccccc1F)C(=O)c1ccccc1
inactive: [1] > 100 µM | [18] > 100 µM | [2] > 100 µM | [3] > 100 µM | [4] > 100 µM | [5] > 100 µM | [7] > 100 µM | [19] > 100 µM | [10] > 100 µM | [11] > 100 µM | [12] > 100 µM | [14] > 100 µM | [15] > 100 µM | [16] > 100 µM | [17] > 100 µM

C=CCN1C(=O)/C(=C\c2cc(C(C)(C)C)c(O)c(C(C)(C)C)c2)NC1=S
inactive: [1] 20.8 µM | [18] 25.2 µM | [2] 16.9 µM | [4] 28.9 µM | [5] 36.6 µM | [6] 27.4 µM | [7] 30.7 µM | [19] 7.19 µM | [8] 15.3 µM | [10] 36.1 µM | [11] 21.2 µM | [12] 34.1 µM | [14] 25 µM | [15] 14.3 µM | [16] 15.6 µM | [17] 15.8 µM

CC1=NN(c2nc(N)nc(-c3sccc3N)n2)C(C)(C)C1
inactive: [1] > 100 µM | [18] > 100 µM | [2] 79.1 µM | [3] > 100 µM | [4] > 100 µM | [5] > 100 µM | [6] 75.9 µM | [7] 83.9 µM | [19] 47.3 µM | [8] 81.1 µM | [10] > 100 µM | [11] 92.5 µM | [12] > 100 µM | [13] 36.3 µM | [14] > 100 µM | [15] > 100 µM | [16] > 100 µM | [17] 58.3 µM

CC(C)CC(NC(=O)C(CI)Cc1ccccc1)C(=O)Nc1ccccc1 (centres undefined)
inactive: [1] > 100 µM | [18] > 100 µM | [2] > 100 µM | [3] > 100 µM | [4] > 100 µM | [5] > 100 µM | [6] > 100 µM | [7] > 100 µM | [19] > 100 µM | [8] > 100 µM | [9] > 100 µM | [11] > 100 µM | [12] > 100 µM | [13] > 100 µM | [14] > 100 µM | [15] > 100 µM | [16] > 100 µM | [17] > 100 µM

COS(=O)c1cc(Cl)cc(Cl)c1OC(=O)CSSCC(=O)Oc1c(Cl)cc(Cl)cc1S(=O)OC (centres undefined)
inactive: [1] 22.4 µM | [18] 15.5 µM | [2] 22.6 µM | [3] 21.6 µM | [4] 22.4 µM | [5] 19.4 µM | [7] 17.1 µM | [19] 15.2 µM | [8] 8.69 µM | [9] 15.3 µM | [10] 7.26 µM | [11] 19.5 µM | [12] 51.3 µM | [13] 24.7 µM | [14] 34.5 µM | [15] 5.92 µM | [16] 23.2 µM | [17] 6.97 µM

CC(=O)Nc1ccccc1-c1nc2ccccc2nc1-c1ccccc1
inactive: [1] > 100 µM | [18] > 100 µM | [2] > 100 µM | [3] > 100 µM | [4] > 100 µM | [5] > 100 µM | [7] > 100 µM | [8] > 100 µM | [9] > 100 µM | [11] > 100 µM | [12] > 100 µM | [13] 69.7 µM | [15] > 100 µM | [16] > 100 µM | [17] > 100 µM

COc1c(Br)cc(Br)c(OC)c1-c1ccc[nH]1
inactive: [1] > 100 µM | [18] > 100 µM | [2] > 100 µM | [4] 37.3 µM | [5] 53.6 µM | [7] 46.8 µM | [8] > 100 µM | [10] > 100 µM | [11] > 100 µM | [12] > 100 µM | [13] 22.1 µM | [14] 5.83 µM | [15] > 100 µM | [16] > 100 µM | [17] 56.1 µM

COc1ccc([N+](=O)[O-])cc1[I+]c1cc([N+](=O)[O-])ccc1OC
inactive: [1] > 100 µM | [18] 81.5 µM | [2] 68.9 µM | [3] 42.2 µM | [5] 23 µM | [19] 4.47 µM | [8] 22.5 µM | [9] 27.7 µM | [10] 25.1 µM | [11] 33.3 µM | [12] 29.4 µM | [20] 28.8 µM | [14] 58.6 µM | [15] 16.1 µM | [16] 33.6 µM | [17] 23.2 µM

CCCCCCC(=O)C/C(CCC(=O)N(Cc1ccccc1)Cc1ccccc1)=N\NC(N)=O
inactive: [1] > 100 µM | [18] > 100 µM | [2] > 100 µM | [3] > 100 µM | [4] > 100 µM | [5] > 100 µM | [7] > 100 µM | [19] > 100 µM | [8] > 100 µM | [9] > 100 µM | [10] > 100 µM | [11] > 100 µM | [12] > 100 µM | [13] > 100 µM | [14] > 100 µM | [15] > 100 µM | [16] > 100 µM | [17] > 100 µM

CCOC(=O)c1cn2c(n1)sc1cccc(C)c12
inactive: [1] > 100 µM | [2] > 100 µM | [3] > 100 µM | [5] 47.3 µM | [6] > 100 µM | [19] > 100 µM | [8] 71.8 µM | [9] > 100 µM | [10] > 100 µM | [11] > 100 µM | [12] > 100 µM | [13] > 100 µM | [14] > 100 µM | [16] > 100 µM | [17] > 100 µM

N#CC1=C(N)Nc2nc3ccccc3n2C1c1ccccc1 (centres undefined)
inactive: [1] 34 µM | [18] 21.6 µM | [2] > 100 µM | [5] 51.5 µM | [7] 49 µM | [8] 45.7 µM | [9] 16.1 µM | [10] 46.7 µM | [11] 27.7 µM | [12] 83.4 µM | [20] 20.2 µM | [15] 42.9 µM | [16] > 100 µM | [17] 56.6 µM

COc1ccc(/C=C2\NC(=S)N(CN3CCOCC3)C2=O)cc1
inactive: [1] > 100 µM | [18] 26.1 µM | [2] > 100 µM | [4] > 100 µM | [5] > 100 µM | [6] > 100 µM | [7] > 100 µM | [19] > 100 µM | [10] > 100 µM | [11] > 100 µM | [12] > 100 µM | [13] > 100 µM | [14] > 100 µM | [15] > 100 µM | [16] > 100 µM | [17] > 100 µM
